Tested on: Patienten, die an akutem Nierenversagen erkrankt waren
Test: Clinical study of gallopamil infusion in patients with acute renal failure
Type: in vivo
Procedure: Zum Nachweis der Wirksamkeit bei akutem Nierenversagen wurde Gallopamil 8 Patienten, die an akutem Nierenversagen erkrankt waren, über einen Zeitraum von 4 Stunden intrarenal in Dosierungen von 40 bis 160 µg/min kontinuierlich infundiert. Gleichzeitig wurde intravenös ein Diuretikum (Furosemid) in einer Konzentration von 40 µg/min über 24 Stunden verabreicht. Bei 2 weiteren Patienten wurde Gallopamil intravenös über Zeiträume von 3 und 24 Stunden in einer Menge von 40 µg/min infundiert.
In dieser Studie konnte bei 80 % der Patienten der deletäre Verlauf des akuten Nierenversagens gestoppt werden (siehe nachstehende Tabelle).

[1] = whole study: 8 patients 40 to 160 µg/min intrarenal over 4 h + Furosemid i.v., 2 patients 40 µg/min intravenous

COc1ccc(CCN(C)CCCC(C#N)(c2cc(OC)c(OC)c(OC)c2)C(C)C)cc1OC (stereo not drawn) [Gallopamil, 1-(3,4-Dimethoxyphenyl)-3-methylaza-7-cyan-7-(3,4,5-trimethoxyphenyl)-8-methylnonan]
Kreatinin-Ausscheidung nach einem Behandlungstag (patient with G-6-PD (Glukose-6-phosphatdehydrogenasemangel), treatment begun 2 weeks after onset and after two dialyses, 83 µg/min intrarenal over 4 h + Furosemid 40 µg/min i.v. over 24 h, before treatment 0,8): 1,2 ml/min | Kreatininkonzentration im Blut nach sieben Behandlungstagen (patient with G-6-PD (Glukose-6-phosphatdehydrogenasemangel), treatment begun 2 weeks after onset and after two dialyses, 83 µg/min intrarenal over 4 h + Furosemid 40 µg/min i.v. over 24 h, before treatment 14,1): 14,6 mg/dl | Kreatinin-Ausscheidung nach einem Behandlungstag (patient with Malaria, treatment begun 2 weeks after onset and after two dialyses, 50 µg/min intrarenal over 4 h + Furosemid 40 µg/min i.v. over 24 h, before treatment 2,2): 3,7 ml/min | Kreatininkonzentration im Blut nach sieben Behandlungstagen (patient with Malaria, treatment begun 2 weeks after onset and after two dialyses, 50 µg/min intrarenal over 4 h + Furosemid 40 µg/min i.v. over 24 h, before treatment 12,7): 5,5 mg/dl | Kreatinin-Ausscheidung nach einem Behandlungstag (patient with Malaria, 40 µg/min intrarenal over 4 h + Furosemid 40 µg/min i.v. over 24 h, before treatment 5,3): 14,3 ml/min | Kreatininkonzentration im Blut nach sieben Behandlungstagen (patient with Malaria, 40 µg/min intrarenal over 4 h + Furosemid 40 µg/min i.v. over 24 h, before treatment 10,4): 3,1 mg/dl | Kreatininkonzentration im Blut nach sieben Behandlungstagen (patient with Rhabdomyolysis, 40 µg/min intravenous over 3 h, before treatment 5,2): 5,9 mg/dl | Kreatinin-Ausscheidung nach einem Behandlungstag (patient with Rhabdomyolysis, 40 µg/min intravenous over 3 h, before treatment 8,9): 3,6 ml/min | Kreatinin-Ausscheidung nach einem Behandlungstag (patient with Rhabdomyolysis, 80 µg/min intrarenal over 4 h + Furosemid 40 µg/min i.v. over 24 h, before treatment 4,0): 5,1 ml/min | Kreatininkonzentration im Blut nach sieben Behandlungstagen (patient with Rhabdomyolysis, 80 µg/min intrarenal over 4 h + Furosemid 40 µg/min i.v. over 24 h, before treatment 10,1): 9,3 mg/dl | Kreatininkonzentration im Blut nach sieben Behandlungstagen (patient with Schock, 40 µg/min intravenous over 24 h, before treatment 5,5): 2,9 mg/dl | Kreatinin-Ausscheidung nach einem Behandlungstag (patient with Schock, 40 µg/min intravenous over 24 h, before treatment 10,4): 17,9 ml/min | Kreatinin-Ausscheidung nach einem Behandlungstag (patient with Schock, 83 µg/min intrarenal over 4 h + Furosemid 40 µg/min i.v. over 24 h, before treatment 3,4): 13,2 ml/min | Kreatininkonzentration im Blut nach sieben Behandlungstagen (patient with Schock, 83 µg/min intrarenal over 4 h + Furosemid 40 µg/min i.v. over 24 h, before treatment 4,7): 1,1 mg/dl | Kreatinin-Ausscheidung nach einem Behandlungstag (patient with hypovolenischer Schock, 160 µg/min intrarenal over 4 h + Furosemid 40 µg/min i.v. over 24 h, before treatment 2,3): 16,1 ml/min | Kreatininkonzentration im Blut nach sieben Behandlungstagen (patient with hypovolenischer Schock, 160 µg/min intrarenal over 4 h + Furosemid 40 µg/min i.v. over 24 h, before treatment 9,6): 2,5 mg/dl | Kreatininkonzentration im Blut nach sieben Behandlungstagen (patient with septischer Schock, 83 µg/min intrarenal over 4 h + Furosemid 40 µg/min i.v. over 24 h, before treatment 10,6): 1,3 mg/dl | Kreatinin-Ausscheidung nach einem Behandlungstag (patient with septischer Schock, 83 µg/min intrarenal over 4 h + Furosemid 40 µg/min i.v. over 24 h, before treatment 29,0): 48,0 ml/min | Patienten, bei denen auf eine Dialyse verzichtet werden konnte [1]: 90% | Patienten, bei denen der deletäre Verlauf des akuten Nierenversagens gestoppt werden konnte [1]: 80% | Überleben des akuten Nierenversagens [1]: alle Patienten überlebten
